Patent US20240109900A1, “AZABICYCLIC SHP2 INHIBITORS” (IRBM S.P.A., priority 2021, published 2024)

Experiments:
[1] = molecular target: SHP-2 enzyme (Met1-Leu525) (Homo sapiens (Human), UniProt Q06124); assay: SHP2 inhibition enzymatic assay; format: biochemical; settings: 0.5 nM SHP-2 activated by 500 nM IRS1 peptide, 75 μM DiFMUP substrate; read-out: SHP2wt-IC50
Outline: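 Compounds were preincubated 30 min with 0.5 nM SHP-2 (Met1-Leu525) plus 500 nM IRS1 activating peptide (pH 7.2 HEPES, 5 mM DTT), then 75 μM DiFMUP substrate reacted 30 min at room temperature. After bpV quench, DiFMUP fluorescence gave % inhibition; four-parameter logistic fit yielded IC50.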

[2] = test system: ERK phosphorylation in KYSE-520 cells; assay: Phospho-ERK cellular assay; format: cell-based; settings: Homo sapiens, KYSE-520, 2 h, KYSE-520 cells, 2 h at 37° C., phospho-ERK1/2 (Thr202/Tyr204) TR-FRET; read-out: PERK IC50
Outline: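 TR-FRET read-out of ERK1/2 Thr202/Tyr204 phosphorylation was taken after overnight antibody incubation at room temperature. Before that, KYSE-520 cells were treated 2 h at 37 °C with compound dilutions and lysed 30 min. Percent inhibition relative to vehicle and cell-free wells was fitted four-parametrically to give IC50.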

Sequence of SHP-2 enzyme (Met1-Leu525) (Q06124 1-525): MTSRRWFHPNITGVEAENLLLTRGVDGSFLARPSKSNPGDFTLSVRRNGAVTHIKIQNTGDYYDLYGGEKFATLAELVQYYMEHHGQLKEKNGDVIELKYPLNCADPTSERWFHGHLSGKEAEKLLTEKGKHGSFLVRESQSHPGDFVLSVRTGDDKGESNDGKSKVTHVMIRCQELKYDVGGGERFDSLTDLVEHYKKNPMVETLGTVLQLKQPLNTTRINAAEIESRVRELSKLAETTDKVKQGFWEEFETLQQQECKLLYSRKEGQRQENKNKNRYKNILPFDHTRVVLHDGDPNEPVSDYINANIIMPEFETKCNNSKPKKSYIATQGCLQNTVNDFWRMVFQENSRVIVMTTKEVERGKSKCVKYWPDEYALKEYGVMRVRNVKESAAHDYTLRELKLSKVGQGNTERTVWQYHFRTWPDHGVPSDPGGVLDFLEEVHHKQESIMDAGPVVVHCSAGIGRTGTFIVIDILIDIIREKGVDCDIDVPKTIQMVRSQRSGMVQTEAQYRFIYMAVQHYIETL

Structure (SMILES)	IC50 [1] [nM]	IC50 [2] [nM]
NC[C@]1(c2ccccc2F)[C@@H]2CCN(c3cnc(Sc4cccc5ncccc45)cn3)C[C@@H]21 [Example 422, ((1S,6R,7R)-7-(2-fluorophenyl)-3-(5-(quinolin-5-ylthio)pyrazin-2-yl)-3-azabicyclo[4.1.0]heptan-7-yl)methanamine]	< 500	< 1000
NC[C@]1(c2ccccc2F)[C@@H]2CCN(c3cnc4c(-c5cccc6[nH]c(=O)ccc56)n[nH]c4n3)C[C@@H]21 [Example 210, 5-(6-((1S,6R,7R)-7-(aminomethyl)-7-(2-fluorophenyl)-3-azabicyclo[4.1.0]heptan-3-yl)-1H-pyrazolo[3,4-b]pyrazin-3-yl)quinolin-2(1H)-one]	< 500	< 1000
NC[C@]1(c2ccccc2F)[C@@H]2CCN(c3cnc4c(-c5ccc6c(c5Cl)NC(=O)CO6)n[nH]c4n3)C[C@@H]21 [Example 207, 6-(6-((1S,6R,7R)-7-(aminomethyl)-7-(2-fluorophenyl)-3-azabicyclo[4.1.0]heptan-3-yl)-1H-pyrazolo[3,4-b]pyrazin-3-yl)-5-chloro-2H-benzo[b][1,4]oxazin-3(4H)-one]	< 500	< 1000
COc1ccc(-c2n[nH]c3nc(N4CC[C@@H]5[C@H](C4)[C@@]5(CN)c4ccccc4F)cnc23)c2cccnc12 [Example 146, ((1S,6R,7R)-7-(2-fluorophenyl)-3-(3-(8-methoxyquinolin-5-yl)-1H-pyrazolo[3,4-b]pyrazin-6-yl)-3-azabicyclo[4.1.0]heptan-7-yl)methanamine]	< 500	< 1000

Results, then the compound that gave them:

IC50 [1] [nM]	IC50 [2] [nM]	Structure (SMILES)
< 500	> 5000	COc1ncccc1-c1n[nH]c2nc(N3CCC4C(C3)C4(CN)c3cc(C)on3)cnc12 (centres unmarked) [Example 28, (3-(3-(2-methoxypyridin-3-yl)-1H-pyrazolo[3,4-b]pyrazin-6-yl)-7-(5-methylisoxazol-3-yl)-3-azabicyclo[4.1.0]heptan-7-yl)methanamine]
< 500	1000 to 5000	NCC1(c2ccsc2)C2CCN(c3cnc4c(-c5ccnc(C(F)(F)F)c5)n[nH]c4n3)CC21 (centres unmarked) [Example 95, (7-(thiophen-3-yl)-3-(3-(2-(trifluoromethyl)pyridin-4-yl)-1H-pyrazolo[3,4-b]pyrazin-6-yl)-3-azabicyclo[4.1.0]heptan-7-yl)methanamine]
< 500	< 1000	CC1(C)C(=O)Nc2ccc(-c3n[nH]c4nc(N5CC[C@@H]6[C@H](C5)[C@@]6(CN)c5ccccc5F)cnc34)cc21 [Example 206, 5-(6-((1S,6R,7R)-7-(aminomethyl)-7-(2-fluorophenyl)-3-azabicyclo[4.1.0]heptan-3-yl)-1H-pyrazolo[3,4-b]pyrazin-3-yl)-3,3-dimethylindolin-2-one]
< 500	< 1000	Cc1csc(C2(CN)C3CCN(c4cnc5c(-c6ccc(F)c7ncccc67)n[nH]c5n4)CC32)n1 (centres unmarked) [Example 92, (3-(3-(8-fluoroquinolin-5-yl)-1H-pyrazolo[3,4-b]pyrazin-6-yl)-7-(4-methylthiazol-2-yl)-3-azabicyclo[4.1.0]heptan-7-yl)methanamine]
< 500	< 1000	NC[C@]1(c2ccccc2F)[C@@H]2CCN(c3cnc4c(-c5ccc6ncsc6c5)n[nH]c4n3)C[C@@H]21 [Example 118, ((1S,6R,7R)-3-(3-(benzo[d]thiazol-6-yl)-1H-pyrazolo[3,4-b]pyrazin-6-yl)-7-(2-fluorophenyl)-3-azabicyclo[4.1.0]heptan-7-yl)methanamine]
< 500	< 1000	NC[C@]1(c2ccccc2F)[C@@H]2CCN(c3cnc4c(-c5ccncc5Cl)n[nH]c4n3)C[C@@H]21 [Example 176, ((1S,6R,7R)-3-(3-(3-chloropyridin-4-yl)-1H-pyrazolo[3,4-b]pyrazin-6-yl)-7-(2-fluorophenyl)-3-azabicyclo[4.1.0]heptan-7-yl)methanamine]
